# “And” between values parts separate entries of the source, which are not always exact repeats. Identical values can stand only once. Like-named read-outs stand apart in the source and are kept apart here. Marks after values point to notes of the source that are not given here.
# Legend:
# Assay type in all cases: in vivo
# [1] = test system: anesthetized normotensive dogs; assay: renal dopamine-like activity by infusion in anesthetized normotensive dogs; conditions: for ED15: Canis lupus familiaris, iv, infusion, anesthetized normotensive dogs
# Procedure: In the test procedure for determining renal dopamine-like activity by infusion in anesthetized normotensive dogs, 6 - chloro - 7,8 - dihydroxy - 1 - (p - hydroxyphenyl) - 2,3,4,5 - tetrahydro - 1 H - 3 - benzazepine has an ED15 of 0.3 µg/kg. The details of the test procedure are presented in the literature references mentioned above. The tri-O-acetyl derivative of this compound has an ED1. of 25 µg/kg, and the tri-O-isobutyryl derivative has an ED15 of 16 µg/kg. Other compounds of Formula I having renal dopaminergic activity can be used by comparing their activity in the anesthetized dog protocol with that of the above specifically named compound in preparing hypotensively effective and non-toxic dosage regimens. For example, referring to compounds of the Formula I in which R is H: […]
# The renal dopaminergic ED1. values given above for the infused anesthetized dog are useful to assess quantitative and qualitative biological properties of the 1 - hydroxyphenyl - 7,8 - dihydroxy - 2,3,4,5 - tetrahydro - 1 H - 3 - benzazepine compounds of Formula I. These compounds are preferably given by oral administration. They are rapidly absorbed from the gastrointestinal tract, and have a relatively short half life in vivo. Therefore, the renal dopaminergic agent must be matched with conventional dosage regimens of the diuretic agents considering the pharmacokinetic properties of each active component. This may be accomplished by combining the renal dopaminergic agent with a diuretic in standard dosage unit forms for administration from 2-6 times daily. This would be most suitable when the diuretic agent is of a short acting nature and conventionally multiple daily doses are used to give the desired maintenanance level.
# [2] = test system: glucose-infused unanesthetized dog; assay: renal clearance study in the glucose-infused unanesthetized dog; conditions: single dose, benzazepine salt alone, glucose-infused dog protocol
# [3] = test system: phosphate mannitol infused dog; assay: renal clearance study in the phosphate-mannitol infused dog; conditions: change from control, triamterene 10 mg. p.o., benzazepine 2.5 mg. p.o.
# Text: Mannitol itself has some proximal natriuretic effect which tends to screen any synergistic effect of the combination. […] In the parameters presented, the control figures are actual values. Phase II, III and IV are changes from control.
# [4] = test system: glucose-infused unanesthetized dog; assay: renal clearance study in the glucose-infused unanesthetized dog; conditions: hydrochlorothiazide 2.5 mg/kg i.v. then 3.0 mg/kg/hr infusion
# Procedure: In the glucose-infused unanesthetized dog, 6 - chloro - 7,8 - dihydroxy - 1 - (p - hydroxyphenyl) 2,3,4,5 - tetrahydro - 1 H - 3 - benzazepine methyl sulfonate was given at the peak time of natriureses established by a maximally effective dose of hydrochlorothiazide.
# All dogs were given an oral water load of 3% of body weight of tap water thirty minutes prior to initiation of the experiment. Using a constant infusion pump the dogs were infused intravenously at 3 ml/min. throughout the course of the experiment, with a 5% dextrose solution containing 3.0 mg/kg/hr of hydrochlorothiazide (HCTZ). Glomerular filtration rate was determined by the clearance of creatinine and effective renal plasma flow by the clearance of p-aminohippuric acid (PAH). […] The solution also contained 0.02% ascorbic acid. Suitable plasma levels of creatinine and p-aminohippuric acid were obtained by a twenty minute infusion of this solution to obtain equilibrium prior to starting of the initial urine collection. […] 1.5 ml/kg of a 1% creatinine solution in saline was also injected intravenously fifteen minutes prior to the start of the collection of urine. Replicate urine collections were obtained at ten minute intervals throughout the experiment. The bladder was emptied by an indwelling catheter and complete urine collections were measured by rinsing the bladder with 10 ml of water at the end of each collection interval, followed by an air wash-out. Venous blood samples were drawn from an indwelling catheter at the mid-point of each clearance period.
# Plasma and urine osmolalities were determined by freezing point depression on freshly obtained samples. Urine volume and pH were recorded at the time of collection. Plasma and urine samples were stored frozen after collection, until analyzed. Analysis for sodium and potassium were made using the flame. photometer, and for chloride, creatinine, and p-aminohippuric acid, by colorimeter, using standard methodologies. These analyses were made simultaneously on each sample. Peak intensities were identified electronically, recorded by "on-line" teletype, stored and subsequently analyzed mathematically by time-shared computer against appropriate standards. Data were computed from linear least square regression lines and quality control standards were analyzed simultaneously to evaluate system reproducibility and reliability.
# In the experiments where hydrochlorothiazide alone was given, twelve clearances were obtained. […] In the combination study the benzazepine was given by stomach tube at 5.0 mg/kg (base) after Ca, The compound was solubilized in water with a small amount of sugar syrup to prevent or minimize emesis. Clearances C7-C'2 (treatment) as in the hydrochlorothiazide alone tests, were taken with no wait between C6 and C7. Five dogs were used with both hydrochlorothiazide and with the combination.
# [5] = individual dog, difference between averages of C1—C6 and C7—C12
smiles,measurement,setting,value
C=CCN1CCc2c(cc(O)c(O)c2Cl)C(c2ccc(O)cc2)C1 (centres unmarked),renal dopaminergic activity,[1]; 0.3 ug/kg/min infusion rate,demonstrated activity
"CS(=O)(=O)O.Oc1ccc(C2CNCCc3c2cc(O)c(O)c3Cl)cc1 (centres unmarked) [6 - Chloro - 7,8 - dihydroxy - 1 - (4 - hydroxyphenyl) - 2,3,4,5 - tetrahydro - 1H - 3 - benzazepine methyl sulphonic acid salt]",diuretic effect,[2],no diuretic effect
"Oc1ccc(C2CNCCc3c2cc(O)c(O)c3Cl)cc1 (centres unmarked) [6 - chloro - 7,8 - dihydroxy - 1 - (p - hydroxyphenyl) - 2,3,4,5 - tetrahydro - 1 H - 3 - benzazepine]",Glomerular Filtration Rate,[3]; Phase II,1
same,Potassium Execretion,[3]; Phase II,−0.93**
same,Glomerular Filtration Rate,[3]; Phase III,−2
same,Potassium Execretion,[3]; Phase III,−1.59
same,Glomerular Filtration Rate,[3]; Phase IV,−2
same,Potassium Execretion,[3]; Phase IV,2.02
same,ED15,[1]; read-out: ED15,0.3 µg/kg
"Oc1cccc(C2CNCCc3c2cc(O)c(O)c3Cl)c1 (centres unmarked) [A, 6 - chloro - 7,8 - dihydroxy - 1 - (3 - hydroxyphenyl) - 2,3,4,5 - tetrahydro - 1 H - 3 - benzazepine]",ED15,[1]; read-out: ED15,0.35 µg/kg
Oc1ccc(C2CNCCc3c2cc(O)c(O)c3Br)cc1 (centres unmarked) [B],ED15,[1]; read-out: ED15,5 µg/kg
"Cc1c(O)c(O)cc2c1CCNCC2c1ccc(O)cc1 (centres unmarked) [C, 6 - methyl - 7,8 - dihydroxy - 1 - (4 - hydroxyphenyl) - 2,3,4,5 - tetrahydro - 1 H - 3 - benzazepine]",ED15,[1]; read-out: ED15,2.8 µg/kg
"Oc1ccc(C2CNCCc3c(Cl)c(O)c(O)c(Cl)c32)cc1 (centres unmarked) [D, 6,9 - dichloro - 7,8 - dihydroxy - 1 - (4 - hydroxyphenyl) - 2,3,4,5 - tetrahydro - 1H - 3 - benzazepine]",ED15,[1]; read-out: ED15,620 µg/kg
Cc1c(O)c(O)c(Cl)c2c1CCNCC2c1ccc(O)cc1 (centres unmarked) [E],ED15,[1]; read-out: ED15,30 µg/kg
Oc1ccc(C2CNCCc3c2cc(O)c(O)c3I)cc1 (centres unmarked) [F],ED15,[1]; read-out: ED15,4.2 µg/kg
"COC(=O)c1c(O)c(O)cc2c1CCNCC2c1ccc(O)cc1 (centres unmarked) [G, 6 - carbomethoxy - 7,8 - dihydroxy - 1 - (4 - hydroxyphenyl) - 2,3,4,5 - tetrahydro - 1H - 3 - benzazepine]",ED15,[1]; read-out: ED15,2.3 µg/kg
"NS(=O)(=O)c1cc2c(cc1Cl)NCNS2(=O)=O [Hydrochlorothiazide, hydrochlorothiazide]",Filtration Fraction Δ,[4]; Average of five dogs,−.012
same,Glomerular Filtration Rate (GFR) Δ % Change,[4]; Average of five dogs,−2.4%
same,Ranal Plasma Flow (RPF) Δ % Change,[4]; Average of five dogs,+2.6%
same,Δ % Na^+ Excreted,[4]; Average of five dogs,−0.82%
same,Filtration Fraction Δ,[4]; [5],−.01 and 0 and +.01 and −.03 (2×)
same,Glomerular Filtration Rate (GFR) Δ % Change,[4]; [5],−6% and +6% and −7% and 0% and −5%
same,Ranal Plasma Flow (RPF) Δ % Change,[4]; [5],−1% and +6% and −10% and +7% and +11%
same,Δ % Na^+ Excreted,[4]; [5],−1.1% (2×) and −0.8% and −0.5% and −0.6%
"Nc1nc(N)c2nc(-c3ccccc3)c(N)nc2n1 [Triamterene, triamterene]",Glomerular Filtration Rate,[3]; Phase II,−3
same,Potassium Execretion,[3]; Phase II,−3.65
same,Glomerular Filtration Rate,[3]; Phase III,−15
same,Potassium Execretion,[3]; Phase III,−5.44
same,Glomerular Filtration Rate,[3]; Phase IV,−15**
same,Potassium Execretion,[3]; Phase IV,−5.61
"CC(=O)Oc1ccc(C2CNCCc3c2cc(OC(C)=O)c(OC(C)=O)c3Cl)cc1 (centres unmarked) [tri-O-acetyl derivative, 6 - chloro - 7,8 - diacetoxy - 1 - (4 - acetoxyphenyl) 2,3,4,5 - tetrahydro - 1H - 3 - benzazepine]",ED15,[1]; read-out: ED1.,25 µg/kg
CC(C)C(=O)Oc1ccc(C2CNCCc3c2cc(OC(=O)C(C)C)c(OC(=O)C(C)C)c3Cl)cc1 (centres unmarked) [tri-O-isobutyryl derivative],ED15,[1]; read-out: ED15,16 µg/kg

# From EP0022330B1, “Synergistic antihypertensive compositions” (SMITHKLINE BECKMAN CORPORATION, priority 1979, dated 1981)
